In publication PMC2665256 (Biochemical and biophysical research communications, 2009):

Biological target: acyl-coenzyme A:cholesterol acyltransferase (ACAT)
Type: biochemical, Mus musculus

CCCCCCCCCC[Si](C)(C)CCC(=O)NC(Cc1ccc(C)cc1)c1ccccc1 (centres unmarked) [58-035]
IC50: 0.4 ± 0.2 µM

Cc1ccc(Cn2nc(C(=O)N[C@@H]3C(C)(C)[C@@H]4CC[C@@]3(C)C4)cc2-c2ccc(Cl)c(C)c2)cc1 [SR144528]
IC50: 3.6 ± 1.1 µM
